Results reported in ChEMBL document CHEMBL1687706, “Inhibition of human immunodeficiency virus type 1 replication in human cells by Debio-025, a novel cyclophilin binding agent” (Antimicrob Agents Chemother, 2008).
Active and inactive are the calls of the source. No cut-off for these calls is given here.

Assays:
Rattus norvegicus [1] = experiment: Immunosuppressive activity in Sprague-Dawley rat […] model assessed as percent T lymphocytes at 50 mg/kg, po administered once daily for 28 days by flow cytometry; assay type: functional
Rattus norvegicus [2] = experiment: Immunosuppressive activity in Sprague-Dawley rat […] model assessed as IgM level at 50 mg/kg, po administered once daily for 28 days by ELISA; assay type: functional
Rattus norvegicus [3] = experiment: Immunosuppressive activity in Sprague-Dawley rat […] model assessed as IgM level at 10 mg/kg, po administered once daily for 28 days by ELISA; assay type: functional
MT4 = experiment: Cytotoxicity against human MT4 cells at 0.83 uM by MTT assay; assay type: cell-based; settings: mt4, 0.83 µM
[4] = system: Human immunodeficiency virus 1; experiment: Antiviral activity against HIV-1 NL4-3 infected in human TZB cells assessed as inhibitory effect on the completion of viral double stranded DNA at 0.5 to 2.5 uM by RT-PCR; assay type: functional, organism-based
[5] = system: Human immunodeficiency virus 1; settings: Human immunodeficiency virus 1, 3B
Rattus norvegicus [6] = experiment: Immunosuppressive activity in Sprague-Dawley rat KHL model assessed as percent cytotoxic T cells at 25 mg/kg, po administered once daily for 28 days by flow cytometry; assay type: functional, T-cell
Rattus norvegicus [7] = experiment: Immunosuppressive activity in Sprague-Dawley rat KHL model assessed as percent cytotoxic T cells at 50 mg/kg, po administered once daily for 28 days by flow cytometry; assay type: functional, T-cell
[8] = system: Human immunodeficiency virus 1; experiment: Antiviral activity against HIV1 subtype A 92UG037 infected in human PBMC assessed as inhibition of viral replication by ELISA; assay type: functional, organism-based; settings: Human immunodeficiency virus 1, subtype A 92UG037
[9] = system: Human immunodeficiency virus 1; experiment: Antiviral activity against HIV1 subtype B SLKA infected in human PBMC assessed as inhibition of viral replication by ELISA; assay type: functional, organism-based; settings: Human immunodeficiency virus 1, subtype B SLKA
[10] = system: Human immunodeficiency virus 1; experiment: Antiviral activity against HIV1 subtype B ROJO infected in human PBMC assessed as inhibition of viral replication by ELISA; assay type: functional, organism-based; settings: Human immunodeficiency virus 1, subtype B ROJO
[11] = system: Human immunodeficiency virus 1; experiment: Antiviral activity against HIV1 subtype C 92BR025 infected in human PBMC assessed as inhibition of viral replication by ELISA; assay type: functional, organism-based; settings: Human immunodeficiency virus 1, subtype C 92BR025
[12] = system: Human immunodeficiency virus 1; experiment: Antiviral activity against HIV1 subtype D 92UG046 infected in human PBMC assessed as inhibition of viral replication by ELISA; assay type: functional, organism-based; settings: Human immunodeficiency virus 1, subtype D 92UG046
[13] = system: Human immunodeficiency virus 1; experiment: Antiviral activity against HIV1 subtype G Jv1083 infected in human PBMC assessed as inhibition of viral replication by ELISA; assay type: functional, organism-based; settings: Human immunodeficiency virus 1, subtype G Jv1083
[14] = system: Human immunodeficiency virus 1; experiment: Antiviral activity against HIV1 subtype O BCF01 infected in human PBMC assessed as inhibition of viral replication by ELISA; assay type: functional, organism-based; settings: Human immunodeficiency virus 1, subtype O BCF01
[15] = system: Human immunodeficiency virus 2; experiment: Antiviral activity against HIV-2 isolate CDC310342 infected in human PBMC assessed as inhibition of viral replication; assay type: functional, organism-based; settings: Human immunodeficiency virus 2, isolate CDC310342
[16] = system: Human immunodeficiency virus 2; experiment: Antiviral activity against HIV-2 isolate CDC310319 infected in human PBMC assessed as inhibition of viral replication; assay type: functional, organism-based; settings: Human immunodeficiency virus 2, isolate CDC310319
Coxsackievirus = experiment: Antiviral activity against Coxsackie B3 infected in african green monkey Vero cells assessed as inhibition of viral replication; assay type: functional, organism-based
Influenza A virus = experiment: Antiviral activity against Influenza A virus H3N2 infected in MDCK cells assessed as inhibition of viral replication; assay type: functional, organism-based
[17] = Cytotoxicity against MDCK cells; assay type: cell-based, Canis lupus familiaris; settings: dog, read-out: TC50 (the source's name)
Human respirovirus 3 = experiment: Antiviral activity against Parainfluenza 3 infected in african green monkey Vero cells assessed as inhibition of viral replication; assay type: functional, organism-based; settings: Human respirovirus 3, Vero
[18] = Cytotoxicity against human HeLa cells; assay type: cell-based; settings: read-out: TC50 (the source's name)
[19] = system: Vesicular stomatitis virus; experiment: Antiviral activity against VSV infected in human embryonic lung cells assessed as inhibition of viral replication; assay type: functional, organism-based
[20] = Cytotoxicity against CRFK; design: species or system Felis catus; settings: cat, CRFK cells; read-out: TC50 (the source's name)
Hepatitis C virus = experiment: Antiviral activity against HCV infected in human Huh 5.2 cells assessed as reduction in viral RNA level by luciferase reporter gene assay; assay type: functional, organism-based, Hepacivirus hominis; settings: Huh-5-2
Yellow fever virus = experiment: Antiviral activity against Yellow fever virus 17D infected in african green monkey Vero cells assessed as inhibition of viral replication; assay type: functional, cell-based
[21] = Cytotoxicity against human Huh 5.2 cells; assay type: cell-based, Huh-5-2; settings: read-out: TC50 (the source's name)
Human alphaherpesvirus 1 [22] = experiment: Antiviral activity against Herpes simplex virus 1 KOS infected in human embryonic lung cells assessed as inhibition of viral replication; assay type: functional, organism-based; settings: Human alphaherpesvirus 1, KOS
Human alphaherpesvirus 1 [23] = experiment: Antiviral activity against Herpes simplex virus 1 F infected in human embryonic lung cells assessed as inhibition of viral replication; assay type: functional, organism-based; settings: Human alphaherpesvirus 1, strain F
Human alphaherpesvirus 2 [24] = experiment: Antiviral activity against Herpes simplex virus 2 G infected in human embryonic lung cells assessed as inhibition of viral replication; assay type: functional, organism-based; settings: Human alphaherpesvirus 2, strain G
Human alphaherpesvirus 2 [25] = experiment: Antiviral activity against Herpes simplex virus 2 196 infected in human embryonic lung cells assessed as inhibition of viral replication; assay type: functional, organism-based; settings: Human alphaherpesvirus 2, 196, lung
Human alphaherpesvirus 2 [26] = experiment: Antiviral activity against Herpes simplex virus 2 Lyons infected in human embryonic lung cells assessed as inhibition of viral replication; assay type: functional, organism-based; settings: Human alphaherpesvirus 2, Lyons
Human alphaherpesvirus 3 = experiment: Antiviral activity against VZV OKA infected in human embryonic lung cells assessed as inhibition of; assay type: functional, organism-based; settings: Human alphaherpesvirus 3, OKA
Human betaherpesvirus 5 = experiment: Antiviral activity against Human cytomegalovirus Davis infected in human embryonic lung cells assessed as reduction in viral yield; assay type: functional, organism-based; settings: Human betaherpesvirus 5, Davis
Hepatitis B virus = experiment: Antiviral activity against HBV infected in human hepAD38 cells assessed as inhibition of viral replication; assay type: functional, organism-based
[27] = system: Human papillomavirus type 16; experiment: Antiviral activity against HPV-16 infected in Caski cells assessed as inhibition of viral replication after 3 days; assay type: functional, organism-based, Human papillomavirus 16
[28] = system: Human papillomavirus type 16; experiment: Antiviral activity against HPV-16 infected in Caski cells assessed as inhibition of viral replication after 7 days; assay type: functional, Human papillomavirus 16
[29] = Antiviral activity against HPV-18 infected in human HeLa cells assessed as inhibition of viral replication after 7 days; assay type: functional; settings: human papillomavirus 18, HeLa, 168 h; read-out: TC50 (the source's name)
[30] = system: Human immunodeficiency virus 1; experiment: Antiviral activity against HIV-1 NL4-3 infected in human TZB cells assessed as inhibition of accumulation of late viral transcripts at 0.5 to 2.5 uM by RT-PCR; assay type: functional, organism-based
[31] = system: Human immunodeficiency virus 1; experiment: Antiviral activity against HIV-1 NL4-3 cells infected in human TZB cells assessed as degradation of cDNA at 0.5 to 2.5 uM after 6 hrs postinfection by RT-PCR; assay type: functional, organism-based
[32] = Cytotoxicity against human HepAD38 cells; assay type: cell-based; settings: read-out: TC50 (the source's name)
[33] = system: Human immunodeficiency virus 1; experiment: microbe, parasite or virus in culture; settings: Human immunodeficiency virus 1, SF2
[34] = system: Human respiratory syncytial virus; experiment: Antiviral activity against RSV infected in human HeLa cells assessed as inhibition of viral replication

For `C/C=C/C[C@@H](C)[C@@H](O)[C@H]1C(=O)N[C@@H](CC)C(=O)N(C)[C@H](C)C(=O)N(CC)[C@@H](C(C)C)C(=O)N[C@@H](C(C)C)C(=O)N(C)[C@@H](CC(C)C)C(=O)N[C@@H](C)C(=O)N[C@H](C)C(=O)N(C)[C@@H](CC(C)C)C(=O)N(C)[C@@H](CC(C)C)C(=O)N(C)[C@@H](C(C)C)C(=O)N1C` [ALISPORIVIR], the Activity (Rattus norvegicus [1]) was 50%, the deltaA (Rattus norvegicus [2]) was 0.67 and the deltaA (Rattus norvegicus [3]) was 0.78. The Activity (MT4) was “Non-toxic”, the inhibition [4] was “Active” and the IC50 [5] was 0.064 µM. It also gave an Activity (Rattus norvegicus [6]) of 18%, an Activity (Rattus norvegicus [7]) of 16.1% and an IC50 [8] of 0.016 µM. For the same molecule, the IC50 [9] was 0.025 µM, the IC50 [10] was 0.024 µM and the IC50 [11] was 0.015 µM. It also gave an IC50 [12] of 0.01 µM, an IC50 [13] of 5.53 µM and an IC50 [14] of 6.25 µM. It also gave an IC50 [15] of 0.058 µM, an IC50 [16] of 10.5 µM and an IC50 (Coxsackievirus) greater than 25 µM. For the same molecule, the IC50 (Influenza A virus) was greater than 9.9 µM, the CC50 [17] was 9.9 µM and the IC50 (Human respirovirus 3) was greater than 25 µM. The CC50 [18] was 8.2 µM, the IC50 [19] was greater than 25 µM and the CC50 [20] was 10.6 µM. For the same molecule, the IC50 (Hepatitis C virus) was 0.22 µM, the IC50 (Yellow fever virus) was greater than 16.6 µM and the CC50 [21] was 22 µM. It also gave an IC50 (Human alphaherpesvirus 1 [22]) greater than 25 µM, an IC50 (Human alphaherpesvirus 1 [23]) greater than 25 µM and an IC50 (Human alphaherpesvirus 2 [24]) greater than 25 µM. The IC50 (Human alphaherpesvirus 2 [25]) was greater than 25 µM, the IC50 (Human alphaherpesvirus 2 [26]) was greater than 25 µM and the IC50 (Human alphaherpesvirus 3) was 2.5 µM. The IC50 (Human betaherpesvirus 5) was 6.1 µM, the IC50 (Hepatitis B virus) was 4.1 µM and the TC50 [27] was 1.2 µM. The TC50 [28] was 0.6 µM, the CC50 [29] was 3.3 µM and the inhibition [30] was “Active”. For the same molecule, the Activity [31] was “Active”, the CC50 [32] was 16.4 µM and the IC50 [33] was 0.063 µM. It also gave an IC50 [34] greater than 8.2 µM.
